Read-outs that look alike come from different tables or passages of the source.
Molecular target: T1, human Y5 receptor (Homo sapiens, UniProt Q15761)
T1 construct: expressed in transfected cells; host or cells: mouse fibroblast LM(tk-) cells, e.g. L-hY5-7 (ATCC CRL-11995)
T1 sequence (Q15761 1-445): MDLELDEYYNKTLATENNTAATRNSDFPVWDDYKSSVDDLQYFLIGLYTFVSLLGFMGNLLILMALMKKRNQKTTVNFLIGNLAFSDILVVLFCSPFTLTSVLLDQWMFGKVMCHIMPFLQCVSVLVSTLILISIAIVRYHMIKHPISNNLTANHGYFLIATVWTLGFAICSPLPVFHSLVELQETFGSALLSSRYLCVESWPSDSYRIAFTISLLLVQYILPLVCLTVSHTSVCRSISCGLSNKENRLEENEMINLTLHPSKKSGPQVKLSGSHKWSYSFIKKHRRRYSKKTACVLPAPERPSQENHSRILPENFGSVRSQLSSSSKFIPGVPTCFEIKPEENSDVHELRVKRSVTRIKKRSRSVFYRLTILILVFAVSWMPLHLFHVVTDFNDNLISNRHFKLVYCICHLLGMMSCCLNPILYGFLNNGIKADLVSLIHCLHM
Test: Radioligand binding to membranes, cloned human Y5 receptor

[1] = Table 6, read-out: Ki, nM hNPY-5
[2] = Table 5, read-out: Ki, nM hNPY-5
[3] = Table 3, read-out: Ki (nM) hNPY-5
[4] = Table 1, read-out: Ki (nM) hNPY-5
[5] = Table 2, read-out: Ki (nM) hNPY-5
[6] = Table 4, read-out: Ki (nM) hNPY-5

Method: Binding of the compounds of the present invention to human Y1, Y2, Y4, and Y5 receptors was evaluated using stably transfected 293 or LM(tk-) cells as described above.
Membranes were harvested from COS-7 cells 48 hours after transient transfection. Adherent cells were washed twice in ice-cold phosphate buffered saline (138 mM NaCl, 8.1 mM Na2HPO4, 2.5 mM KCl, 1.2 mM KH2PO4, 0.9 mM CaCl2, 0.5 mM MgCl2, pH 7.4) and lysed by sonication in ice-cold sonication buffer (20 mM Tris-HCl, 5 mM EDTA, pH 7.7). Large particles and debris were cleared by low speed centrifugation (200×g, 5 min, 4° C.). Membranes were collected from the supernatant fraction by centrifugation (32,000×g, 18 min, 4° C.), washed with ice-cold hypotonic buffer, and collected again by centrifugation (32,000×g, 18 min, 4° C.). The final membrane pellet was resuspended by sonication into a small volume of ice-cold binding buffer (˜1 ml for every 5 plates: 10 mM NaCl, 20 mM HEPES, 0.22 mM KH2PO4, 1.26 mM CaCl2, 0.81 mM MgSO4, pH 7.4). Protein concentration was measured by the Bradford method (Bradford, 1976) using Bio-Rad Reagent, with bovine serum albumin as a standard. Membranes were held on ice for up to one hour and used fresh, or flash-frozen and stored in liquid nitrogen.
Membranes were prepared similarly from 293, LM(tk-), and NIH-3T3 cells.
Membrane suspensions were diluted in binding buffer supplemented with 0.1% bovine serum albumin to yield an optimal membrane protein concentration so that ^125I-PYY (or alternative radioligand such as ^125I-NPY, ^125I-NYY3-36, or ^125I-[Leu^31Pro^34]PYY) bound by membranes in the assay was less than 10% of ^125I-PYY (or alternative radioligand) delivered to the sample (100,000 dpm/sample=0.08 nM for competition binding assays). ^125I-PYY (or alternative radioligand) and peptide competitors were also diluted to desired concentrations in supplemented binding buffer. Individual samples were then prepared in 96-well polypropylene microtiter plates by mixing ^125I-PYY (25 μL) (or alternative radioligand), competing peptides or supplemented binding buffer (25 μL), and finally, membrane suspensions (200 μL). Samples were incubated in a 30° C. water bath with constant shaking for 120 min. Incubations were terminated by filtration over Whatman GF/C filters (pre-coated with 1% polyethyleneimine and air-dried before use), followed by washing with 5 mL of ice-cold binding buffer. Filter-trapped membranes were impregnated with MeltiLex solid scintillant (Wallac, Turku, Finland) and counted for ^125I in a Wallac Beta-Plate Reader. Alternatively, incubations were carried out in GF/C filter plates (pre-coated with 1% polyethyleneimine and air-dried before use), followed by vacuum filtration and three washes of 300 μL of ice-cold binding buffer. 50 μL of UltimaGold (Packard) scintillant were added and counted for ^125I, in a Wallac MicroBeta Trilux. Non-specific binding was defined by 300 nM human NPY for all receptors except the Y4 subtypes; 100 nM human PP was used for the human Y4 and 100 nM rat PP for the rat Y4.

`O=S(=O)(NCCCCCNc1nc2c(s1)CCSc1ccccc1-2)c1ccc(F)cc1F` [Example 137, N1-[5-(4,5-Dihydrobenzo[2,3]thiepino[4,5-d][1,3]thiazol-2-ylamino)pentyl]-2,4-difluoro-1-benzenesulfonamide] gave a Ki [1] of 6.5 nM.

Work on `Cc1nc(-c2csc(NCCCCCNS(=O)(=O)N(C)C)n2)c(C)s1` [Example 96, N′-(5-[4-(2,5-Dimethyl-1,3-thiazol-4-yl)-1,3-thiazol-2-yl]aminopentyl)-N,N-dimethylsulfamide] yielded a Ki [2] of 8.1 nM.

Work on `CN(C)S(=O)(=O)NCCCCCNc1nc(-c2cccs2)cs1` [Example 91, N,N-Dimethyl-N′-(5-{[4-(2-thienyl)-1,3-thiazol-2-yl]amino}-pentyl)sulfamide] yielded a Ki [2] of 12.4 nM.

In the case of `CN(C)S(=O)(=O)NCC1CCC(CNc2nc(Cl)nc(Cl)n2)CC1` (centres unmarked) [Example 53, N′-((4-(((4,6-dichloro-1,3,5-triazin-2-yl)amino)methyl)cyclohexyl)methyl)-N,N-dimethylsulfamide], the Ki [3] was 20700 nM.

`O=S(=O)(NC[C@H]1CC[C@H](Nc2nc3c(s2)CCSc2ccccc2-3)CC1)c1cccc(C(F)(F)F)c1` [Example 150, N1-{[4-(4,5-Dihydrobenzo[2,3]thiepino[4,5-d][1,3]thiazol-2-ylamino)cyclohexyl]methyl}-3-(trifluoromethyl)-1-benzenesulfonamide] gave a Ki [1] of 21 nM.

In the case of `O=S(=O)(NCCCCCNc1nc2c(s1)CCSc1ccccc1-2)c1c(Cl)cccc1Cl` [Example 131, N1-[5-(4,5-Dihydrobenzo[2,3]thiepino[4,5-d][1,3]thiazol-2-ylamino)pentyl]-2,6-dichloro-1-benzenesulfonamide], the Ki [1] was 71 nM.

In the case of `COc1cccc(Br)c1S(=O)(=O)NCCCCCNc1nc2c(s1)CCSc1ccccc1-2` [Example 132, N1-[5-(4,5-Dihydrobenzo[2,3]thiepino[4,5-d][1,3]thiazol-2-ylamino)pentyl]-2-bromo-6-methoxy-1-benzenesulfonamide], the Ki [1] was 9.7 nM.

Molecule `O=S(=O)(Cc1ccccc1)NC[C@H]1CC[C@H](Nc2nc3c(s2)CCSc2ccccc2-3)CC1` [Example 153, N-{[4-(4,5-Dihydrobenzo[2,3]thiepino[4,5-d][1,3]thiazol-2-ylamino)cyclohexyl]methyl}phenyl-methanesulfonamide] has a Ki [1] of 8.9 nM.

Work on `CC(C)Nc1nc(NCCO)nc(NCC2CCC(CNS(=O)(=O)c3cccc4ccccc34)CC2)n1` (centres unmarked) [Example 11, N1-[4-([4-[(2-hydroxyethyl)amino]-6-(isopropylamino)-1,3,5-triazin-2-yl]aminomethyl)cyclohexyl]methyl-1-naphthalenesulfonamide] yielded a Ki [4] of 35 nM.

`CN(C)S(=O)(=O)NCC1CCC(CNc2nc(N3CCOCC3)nc(N3CCOCC3)n2)CC1` (centres unmarked) [Example 50, N′-[(4-[(4,6-dimorpholino-1,3,5-triazin-2-yl)amino]methylcyclohexyl)methyl]-N,N-dimethylsulfamide] showed a Ki [3] of 3510 nM.

For `CCCCCNc1nc(NCC2CCC(CNS(=O)(=O)c3cccc4ccccc34)CC2)nc(NC(C)C)n1` (centres unmarked) [Example 9, N1-[4-([4-(isopropylamino)-6-(pentylamino)-1,3,5-triazin-2-yl]aminomethyl)cyclohexyl]methyl-1-naphthalenesulfonamide], the Ki [4] was 6 nM.

With `CC(C)Nc1nc(NCC2CCC(CNS(=O)(=O)c3cccc4ccccc34)CC2)nc(NC(C)C)n1` (centres unmarked) [Example 4, N1-{[4-({[4,6-Di(isopropylamino)-1,3,5-triazin-2-yl]amino}methyl)cyclohexyl]methyl}-1-naphthalenesulfonamide] the Ki [4] was 23 nM.

For `O=C(NCCCCCNc1nc2c(s1)CCSc1ccccc1-2)c1cccs1` [Example 141, N2-[5-(4,5-Dihydrobenzo[2,3]thiepino[4,5-d][1,3]thiazol-2-ylamino)pentyl]-2-thiophenecarboxamide], the Ki [1] was 84 nM.

Work on `CCNc1nc(NCC)nc(NCC2CCC(CNS(=O)(=O)c3ccccc3F)CC2)n1` (centres unmarked) [Example 32, N1-[4-([4,6-di(ethylamino)-1,3,5-triazin-2-yl]aminomethyl)cyclohexyl]methyl-2-fluoro-1-benzenesulfonamide] yielded a Ki [5] of 35 nM.

`O=S(=O)(NCCCCCNc1nc2c(s1)CCSc1ccccc1-2)c1ccccc1F` [Example 128, N1-[5-(4,5-Dihydrobenzo[2,3]thiepino[4,5-d][1,3]thiazol-2-ylamino)pentyl]-2-fluoro-1-benzenesulfonamide] was tested, and the Ki [1] was 3.7 nM.

`CCNc1nc(NCC)nc(NCC2CCC(CNS(=O)(=O)c3ccc4nsnc4c3)CC2)n1` (centres unmarked) [Example 40, N5-[4-([4,6-di(ethylamino)-1,3,5-triazin-2-yl]aminomethyl)cyclohexyl]methyl-2,1,3-benzothiadiazole-5-sulfonamide] gave a Ki [5] of 5 nM.

For `C=CCNc1nc(NCC2CCC(CNS(=O)(=O)c3cccc4ccccc34)CC2)nc(NC(C)C)n1` (centres unmarked) [Example 3, N1-{[4-({[4-(Allylamino)-6-(isopropylamino)-1,3,5-triazin-2-yl]amino}methyl)cyclohexyl]methyl}-1-naphthalenesulfonamide], the Ki [4] was 12 nM.

`CCCNc1nc(NCC2CCC(CNS(=O)(=O)c3cccc4ccccc34)CC2)nc(NC(C)C)n1` (centres unmarked) [Example 5, N1-[4-([4-(isopropylamino)-6-(propylamino)-1,3,5-triazin-2-yl]aminomethyl)cyclohexyl]methyl-1-naphthalenesulfonamide] showed a Ki [4] of 18 nM.

In the case of `O=C(NCCCCCNc1nc2c(s1)CCSc1ccccc1-2)c1ccc2ccccc2c1` [Example 142, N2-[5-(4,5-Dihydrobenzo[2,3]thiepino[4,5-d][1,3]thiazol-2-ylamino)pentyl]-2-naphthamide], the Ki [1] was 100 nM.

For `CC(C)Nc1nc(NCC2CCC(CNS(=O)(=O)c3cccc4ccccc34)CC2)nc(N2CCCCC2C)n1` (centres unmarked) [Example 23, N1-[4-([4-(isopropylamino)-6-(2-methylpiperidino)-1,3,5-triazin-2-yl]aminomethyl)cyclohexyl]methyl-1-naphthalenesulfonamide], the Ki [4] was 68 nM.

With `COc1ccc(CCNc2nc(NCC3CCC(CNS(=O)(=O)c4cccc5ccccc45)CC3)nc(NC(C)C)n2)cc1` (centres unmarked) [Example 16, N1-({4-[({4-(isopropylamino)-6-[(4-methoxyphenethyl)amino]-1,3,5-triazin-2-yl}amino)methyl]cyclohexyl}methyl)-1-naphthalenesulfonamide] the Ki [4] was 313 nM.

`CCNc1nc(NCC)nc(NCCCn2ccnc2)n1` [Example 57, N2,N4-diethyl-N6-[3-(1H-1-imidazolyl)propyl]-1,3,5-triazine-2,4,6-triamine] gave a Ki [6] of over 100000 nM.

With `COc1ccc(C)cc1S(=O)(=O)N[C@H]1CC[C@H](CNc2nc(-c3ccccn3)cs2)CC1` [Example 83, trans-2-(4-(2-Methoxy-5-methylphenyl)sulfonylamino)-cyclohexylmethylamino-4-(2-pyridyl)thiazole dihydrogen chloride] the Ki [2] was 4 nM.

`CCN(CC)c1nc(NCC2CCC(CNS(=O)(=O)c3cccc4ccccc34)CC2)nc(NC(C)C)n1` (centres unmarked) [Example 19, N1-[4-([4-(diethylamino)-6-(isopropylamino)-1,3,5-triazin-2-yl]aminomethyl)cyclohexyl]methyl-1-naphthalenesulfonamide] was tested, and the Ki [4] was 53 nM.

Work on `CCNc1nc(NCC)nc(NCc2ccccn2)n1` [Example 58, N2,N4-diethyl-N6-(2-pyridylmethyl)-1,3,5-triazine-2,4,6-triamine] yielded a Ki [6] of over 100000 nM.

Work on `Cc1nc(-c2csc(N[C@H]3CC[C@H](CNS(=O)(=O)c4ccc(F)cc4)CC3)n2)c(C)s1` [Example 97] yielded a Ki [2] of 6.6 nM.

For `CC(C)Nc1nc(NCC2CCC(CNS(=O)(=O)c3cccc4ccccc34)CC2)nc(N2CCCCC2)n1` (centres unmarked) [Example 22, N1-{[4-({[4-(isopropylamino)-6-piperidino-1,3,5-triazin-2-yl]amino}methyl)cyclohexyl]methyl}-1-naphthalenesulfonamide], the Ki [4] was 38 nM.

For `O=S(=O)(NCCCCCCNc1nc2c(s1)CCSc1ccccc1-2)c1c(Cl)nc2sccn12` [Example 117, N5-[6-(4,5-Dihydrobenzo[2,3]thiepino[4,5-d][1,3]thiazol-2-ylamino)hexyl]-6-chloroimidazo[2,1-b][1,3]thiazole-5-sulfonamide], the Ki [1] was 6.6 nM.

In the case of `CC(C)Nc1nc(NCC2CCC(CNS(=O)(=O)c3cccc4ccccc34)CC2)nc(N(C)C)n1` (centres unmarked) [Example 17, N1-{[4-({[4-(dimethylamino)-6-(isopropylamino)-1,3,5-triazin-2-yl]amino}methyl)cyclohexyl]methyl}-1-naphthalenesulfonamide], the Ki [4] was 27 nM.

Work on `CCNc1nc(NCC)nc(NCCCCCn2cccn2)n1` [Example 56, N2,N4-diethyl-N6-[5-(1H-1-pyrazolyl)pentyl]-1,3,5-triazine-2,4,6-triamine] yielded a Ki [6] of 94400 nM.

`O=S(=O)(NC[C@H]1CC[C@H](Nc2nc3c(s2)CCSc2ccccc2-3)CC1)c1ccc(F)cc1F` [Example 151, N1-{[4-(4,5-Dihydrobenzo[2,3]thiepino[4,5-d][1,3]thiazol-2-ylamino)cyclohexyl]methyl}-2,4-difluoro-1-benzenesulfonamide] was tested, and the Ki [1] was 7.9 nM.

In the case of `CC(C)Nc1nc(NCC2CCC(CNS(=O)(=O)N3CCOCC3)CC2)nc(N2CCOCC2)n1` (centres unmarked) [Example 44, N4-[4-([4-(isopropylamino)-6-morpholino-1,3,5-triazin-2-yl]aminomethyl)cyclohexyl]methyl-4-morpholinesulfonamide], the Ki [3] was 295 nM.
